Test results as given in the kinase profiling compilation of Christmann-Franck et al. (2016).

Key:
Assay in all cases: Caliper, Mobility shift assay off-chip
MUSK (human) = MUSK (human) (UniProt O15146)
CDK3 CCNE1 (human) = CDK3 CCNE1 (human) (UniProt P24864+Q00526)
PTK2B (human) = PTK2B (human) (UniProt Q14289)
CSNK1G1 (human) = CSNK1G1 (human) (UniProt Q9HCP0)
BTK (human) = BTK (human) (UniProt Q06187)
AXL (human) = AXL (human) (UniProt P30530)
AKT3 (human) = AKT3 (human) (UniProt Q9Y243)
CSNK2A2 (human) = CSNK2A2 (human) (UniProt P19784)
PRKD1 (human) = PRKD1 (human) (UniProt Q15139)
GRK6 (human) = GRK6 (human) (UniProt P43250)
Chain of GRK6 (human) (P43250 whole entry, looked up): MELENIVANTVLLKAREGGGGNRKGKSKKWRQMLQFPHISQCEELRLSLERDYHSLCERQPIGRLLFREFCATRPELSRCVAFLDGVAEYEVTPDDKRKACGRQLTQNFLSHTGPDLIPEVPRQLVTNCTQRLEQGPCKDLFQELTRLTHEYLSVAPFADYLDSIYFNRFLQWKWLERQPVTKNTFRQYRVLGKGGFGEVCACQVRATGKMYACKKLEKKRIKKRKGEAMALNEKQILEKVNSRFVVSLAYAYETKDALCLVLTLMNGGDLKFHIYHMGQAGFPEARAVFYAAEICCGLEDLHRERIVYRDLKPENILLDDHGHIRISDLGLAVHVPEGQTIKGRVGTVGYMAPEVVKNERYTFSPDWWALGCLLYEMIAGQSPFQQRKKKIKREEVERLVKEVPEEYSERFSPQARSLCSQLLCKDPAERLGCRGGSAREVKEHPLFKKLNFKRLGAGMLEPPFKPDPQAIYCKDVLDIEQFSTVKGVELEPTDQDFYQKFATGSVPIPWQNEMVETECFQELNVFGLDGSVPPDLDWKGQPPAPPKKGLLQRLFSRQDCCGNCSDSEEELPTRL

CSK (human) = CSK (human) (UniProt P41240)
Chain of CSK (human) (P41240 whole entry, looked up): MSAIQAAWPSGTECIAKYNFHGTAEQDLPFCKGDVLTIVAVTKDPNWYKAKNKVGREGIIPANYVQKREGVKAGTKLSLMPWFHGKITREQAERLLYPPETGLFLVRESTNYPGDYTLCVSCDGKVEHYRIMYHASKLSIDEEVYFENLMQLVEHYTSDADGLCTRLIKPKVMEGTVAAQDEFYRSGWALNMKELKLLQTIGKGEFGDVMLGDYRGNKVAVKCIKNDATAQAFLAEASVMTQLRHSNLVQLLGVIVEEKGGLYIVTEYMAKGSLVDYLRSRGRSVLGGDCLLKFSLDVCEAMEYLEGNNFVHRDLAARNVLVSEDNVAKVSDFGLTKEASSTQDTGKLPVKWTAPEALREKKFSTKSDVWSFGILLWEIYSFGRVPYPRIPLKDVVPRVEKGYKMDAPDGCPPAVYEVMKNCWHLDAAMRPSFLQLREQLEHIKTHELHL

STK11 (human) = STK11 (human) (UniProt Q15831)
ACVR1B (human) = ACVR1B (human) (UniProt P36896)
LYN (human) = LYN (human) (UniProt P07948)
PDGFRB (human) = PDGFRB (human) (UniProt P09619)
NTRK1 (human) = NTRK1 (human) (UniProt P04629)
IRAK4 (human) = IRAK4 (human) (UniProt Q9NWZ3)
[1] = system: CHEK2 (human), O96017 [R145W]
AURKA (human) = AURKA (human) (UniProt O14965)
PKN2 (human) = PKN2 (human) (UniProt Q16513)
SRPK3 (human) = SRPK3 (human) (UniProt Q9UPE1)
SIK1 (human) = SIK1 (human) (UniProt P57059)
RPS6KA6 KD1 KD2 (human) = RPS6KA6 KD1 KD2 (human) (UniProt Q9UK32)
TAOK3 (human) = TAOK3 (human) (UniProt Q9H2K8)
NUAK1 (human) = NUAK1 (human) (UniProt O60285)
Chain of NUAK1 (human) (O60285 whole entry, looked up): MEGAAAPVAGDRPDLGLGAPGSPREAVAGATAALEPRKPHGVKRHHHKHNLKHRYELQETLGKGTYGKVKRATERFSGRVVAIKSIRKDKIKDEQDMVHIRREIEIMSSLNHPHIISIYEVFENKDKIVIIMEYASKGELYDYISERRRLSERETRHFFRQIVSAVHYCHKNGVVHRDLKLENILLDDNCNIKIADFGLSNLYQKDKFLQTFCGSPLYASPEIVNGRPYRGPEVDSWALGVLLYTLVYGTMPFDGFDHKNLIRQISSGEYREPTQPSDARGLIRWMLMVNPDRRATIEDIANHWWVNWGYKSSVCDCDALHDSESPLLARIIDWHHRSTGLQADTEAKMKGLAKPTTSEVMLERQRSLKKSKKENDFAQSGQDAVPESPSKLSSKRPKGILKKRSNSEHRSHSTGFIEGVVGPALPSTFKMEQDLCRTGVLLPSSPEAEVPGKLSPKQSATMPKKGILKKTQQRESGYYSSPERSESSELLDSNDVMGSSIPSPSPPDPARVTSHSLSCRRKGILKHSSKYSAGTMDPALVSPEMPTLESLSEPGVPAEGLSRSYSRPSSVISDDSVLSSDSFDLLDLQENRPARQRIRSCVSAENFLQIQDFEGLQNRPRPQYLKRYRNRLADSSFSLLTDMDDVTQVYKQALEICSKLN

FLT1 (human) = FLT1 (human) (UniProt P17948)
NTRK2 (human) = NTRK2 (human) (UniProt Q16620)
Chain of NTRK2 (human) (Q16620 whole entry, looked up): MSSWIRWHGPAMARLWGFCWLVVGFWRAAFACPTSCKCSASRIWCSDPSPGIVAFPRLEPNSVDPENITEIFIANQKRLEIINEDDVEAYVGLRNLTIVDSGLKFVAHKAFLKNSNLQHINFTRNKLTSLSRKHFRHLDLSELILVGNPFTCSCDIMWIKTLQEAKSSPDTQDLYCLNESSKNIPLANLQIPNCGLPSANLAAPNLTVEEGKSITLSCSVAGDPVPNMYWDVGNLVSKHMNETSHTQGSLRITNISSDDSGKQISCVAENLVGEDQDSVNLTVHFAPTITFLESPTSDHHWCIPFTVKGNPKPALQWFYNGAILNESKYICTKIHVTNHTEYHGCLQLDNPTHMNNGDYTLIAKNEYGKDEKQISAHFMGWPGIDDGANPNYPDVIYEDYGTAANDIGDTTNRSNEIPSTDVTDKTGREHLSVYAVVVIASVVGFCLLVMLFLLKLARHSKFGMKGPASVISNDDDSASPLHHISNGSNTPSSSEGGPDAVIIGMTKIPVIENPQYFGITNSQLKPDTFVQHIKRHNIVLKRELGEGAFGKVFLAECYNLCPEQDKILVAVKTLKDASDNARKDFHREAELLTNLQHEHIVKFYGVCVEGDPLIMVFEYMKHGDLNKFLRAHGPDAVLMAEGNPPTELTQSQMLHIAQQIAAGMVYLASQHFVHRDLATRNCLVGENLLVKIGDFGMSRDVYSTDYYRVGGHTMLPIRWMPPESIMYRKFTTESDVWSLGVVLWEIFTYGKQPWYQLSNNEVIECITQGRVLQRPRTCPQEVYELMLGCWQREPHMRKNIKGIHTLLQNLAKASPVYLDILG

SRPK2 (human) = SRPK2 (human) (UniProt P78362)
PRKACA (human) = PRKACA (human) (UniProt P17612)
PRKCB1 (human) = PRKCB1 (human) (UniProt P05771)
[2] = system: EGFR (human), P00533 [L858R]
PRKD2 (human) = PRKD2 (human) (UniProt Q9BZL6)
YES1 (human) = YES1 (human) (UniProt P07947)
Chain of YES1 (human) (P07947 whole entry, looked up): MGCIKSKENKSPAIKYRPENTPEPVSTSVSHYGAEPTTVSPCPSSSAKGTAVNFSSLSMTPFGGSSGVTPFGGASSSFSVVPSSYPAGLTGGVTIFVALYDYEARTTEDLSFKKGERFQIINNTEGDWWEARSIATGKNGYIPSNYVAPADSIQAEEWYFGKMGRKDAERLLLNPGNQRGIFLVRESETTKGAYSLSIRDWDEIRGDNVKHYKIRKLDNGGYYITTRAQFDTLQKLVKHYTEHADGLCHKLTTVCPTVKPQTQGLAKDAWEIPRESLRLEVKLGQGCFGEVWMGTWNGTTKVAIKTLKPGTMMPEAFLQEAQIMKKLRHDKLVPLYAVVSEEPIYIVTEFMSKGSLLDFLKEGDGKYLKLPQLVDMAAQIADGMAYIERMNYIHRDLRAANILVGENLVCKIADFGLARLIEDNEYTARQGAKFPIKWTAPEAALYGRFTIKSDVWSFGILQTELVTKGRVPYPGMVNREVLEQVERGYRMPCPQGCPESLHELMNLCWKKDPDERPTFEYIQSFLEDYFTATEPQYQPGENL

ABL1 (human) = ABL1 (human) (UniProt P00519)
ROS1 (human) = ROS1 (human) (UniProt P08922)
EPHA3 (human) = EPHA3 (human) (UniProt P29320)
NEK3 (human) = NEK3 (human) (UniProt P51956)
CAMK2D (human) = CAMK2D (human) (UniProt Q13557)
PAK2 (human) = PAK2 (human) (UniProt Q13177)
[3] = system: KIT (human), P10721 [V560G]
PASK (human) = PASK (human) (UniProt Q96RG2)

Chain of BTK (human) (Q06187 whole entry, looked up): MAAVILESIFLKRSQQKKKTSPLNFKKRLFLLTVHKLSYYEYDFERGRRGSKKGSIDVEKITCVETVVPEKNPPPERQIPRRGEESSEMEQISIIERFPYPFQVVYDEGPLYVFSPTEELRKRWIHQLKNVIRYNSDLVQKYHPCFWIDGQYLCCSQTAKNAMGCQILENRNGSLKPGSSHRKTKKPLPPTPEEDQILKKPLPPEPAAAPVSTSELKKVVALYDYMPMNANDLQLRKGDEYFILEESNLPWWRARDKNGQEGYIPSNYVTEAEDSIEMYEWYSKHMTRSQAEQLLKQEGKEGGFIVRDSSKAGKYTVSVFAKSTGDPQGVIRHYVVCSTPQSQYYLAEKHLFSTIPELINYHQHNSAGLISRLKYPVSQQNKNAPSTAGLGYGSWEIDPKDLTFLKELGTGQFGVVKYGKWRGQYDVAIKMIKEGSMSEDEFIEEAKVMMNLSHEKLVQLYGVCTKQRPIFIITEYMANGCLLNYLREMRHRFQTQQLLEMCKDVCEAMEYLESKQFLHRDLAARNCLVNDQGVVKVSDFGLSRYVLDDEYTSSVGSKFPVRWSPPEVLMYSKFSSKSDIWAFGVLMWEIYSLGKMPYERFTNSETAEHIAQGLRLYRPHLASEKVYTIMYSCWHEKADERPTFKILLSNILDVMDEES
Chain of PTK2B (human) (Q14289 whole entry, looked up): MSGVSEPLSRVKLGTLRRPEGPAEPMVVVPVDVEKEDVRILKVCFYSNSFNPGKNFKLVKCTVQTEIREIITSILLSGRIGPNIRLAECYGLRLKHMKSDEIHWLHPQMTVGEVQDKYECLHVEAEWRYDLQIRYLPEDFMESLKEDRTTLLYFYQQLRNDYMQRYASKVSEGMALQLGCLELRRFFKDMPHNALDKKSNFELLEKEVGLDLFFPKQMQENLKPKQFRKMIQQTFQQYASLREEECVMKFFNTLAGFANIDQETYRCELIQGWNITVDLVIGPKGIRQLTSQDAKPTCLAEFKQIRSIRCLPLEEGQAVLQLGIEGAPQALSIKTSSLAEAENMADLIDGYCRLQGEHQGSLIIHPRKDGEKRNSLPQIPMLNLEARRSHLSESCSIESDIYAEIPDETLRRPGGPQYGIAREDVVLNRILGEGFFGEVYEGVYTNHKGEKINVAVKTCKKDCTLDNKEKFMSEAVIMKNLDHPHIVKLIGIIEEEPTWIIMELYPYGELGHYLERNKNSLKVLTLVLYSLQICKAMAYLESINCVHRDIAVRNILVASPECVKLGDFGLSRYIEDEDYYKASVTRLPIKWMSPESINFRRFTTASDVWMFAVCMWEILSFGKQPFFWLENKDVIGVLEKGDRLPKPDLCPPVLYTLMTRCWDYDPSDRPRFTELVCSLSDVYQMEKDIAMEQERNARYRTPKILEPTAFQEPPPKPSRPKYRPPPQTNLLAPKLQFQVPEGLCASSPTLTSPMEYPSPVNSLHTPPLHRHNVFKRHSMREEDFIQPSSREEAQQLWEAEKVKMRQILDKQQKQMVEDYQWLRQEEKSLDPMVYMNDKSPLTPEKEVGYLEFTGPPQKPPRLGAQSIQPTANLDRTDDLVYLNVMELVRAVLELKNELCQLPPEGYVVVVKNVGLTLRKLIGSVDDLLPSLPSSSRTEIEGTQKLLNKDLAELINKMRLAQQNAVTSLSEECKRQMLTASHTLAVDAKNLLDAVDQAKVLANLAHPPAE

SMILES: O=C(N[C@@H](COc1ccc2[nH]c(=O)[nH]c2c1)c1ccccc1)c1cccn(Cc2ccc(F)c(F)c2)c1=O
- residual activity (MUSK (human); compound 10.0 µM): 98%
- residual activity (CDK3 CCNE1 (human); compound 10.0 µM): 113%
- residual activity (PTK2B (human); compound 10.0 µM): 98%
- residual activity (CSNK1G1 (human); compound 10.0 µM): 102%
- residual activity (BTK (human); compound 10.0 µM): 107%
- residual activity (AXL (human); compound 10.0 µM): 107%
- residual activity (AKT3 (human); compound 10.0 µM): 99%
- residual activity (CSNK2A2 (human); compound 10.0 µM): 105%
- residual activity (PRKD1 (human); compound 10.0 µM): 100%
- residual activity (GRK6 (human); compound 10.0 µM): 108%
- residual activity (CSK (human); compound 10.0 µM): 114%
- residual activity (STK11 (human); compound 10.0 µM): 111%
- residual activity (ACVR1B (human); compound 10.0 µM): 115%
- residual activity (LYN (human); compound 10.0 µM): 115%
- residual activity (PDGFRB (human); compound 10.0 µM): 113%
- residual activity (NTRK1 (human); compound 10.0 µM): 108%
- residual activity (IRAK4 (human); compound 10.0 µM): 108%
- residual activity ([1]; compound 10.0 µM): 96%
- residual activity (AURKA (human); compound 10.0 µM): 107%
- residual activity (PKN2 (human); compound 10.0 µM): 96%
- residual activity (SRPK3 (human); compound 10.0 µM): 114%
- residual activity (SIK1 (human); compound 10.0 µM): 102%
- residual activity (RPS6KA6 KD1 KD2 (human); compound 10.0 µM): 113%
- residual activity (TAOK3 (human); compound 10.0 µM): 98%
- residual activity (NUAK1 (human); compound 10.0 µM): 106%
- residual activity (FLT1 (human); compound 10.0 µM): 95%
- residual activity (NTRK2 (human); compound 10.0 µM): 95%
- residual activity (SRPK2 (human); compound 10.0 µM): 102%
- residual activity (PRKACA (human); compound 10.0 µM): 117%
- residual activity (PRKCB1 (human); compound 10.0 µM): 95%
- residual activity ([2]; compound 10.0 µM): 102%
- residual activity (PRKD2 (human); compound 10.0 µM): 110%
- residual activity (YES1 (human); compound 10.0 µM): 91%
- residual activity (ABL1 (human); compound 10.0 µM): 115%
- residual activity (ROS1 (human); compound 10.0 µM): 111%
- residual activity (EPHA3 (human); compound 10.0 µM): 118%
- residual activity (NEK3 (human); compound 10.0 µM): 104%
- residual activity (CAMK2D (human); compound 10.0 µM): 92%
- residual activity (PAK2 (human); compound 10.0 µM): 94%
- residual activity ([3]; compound 10.0 µM): 99%
- residual activity (PASK (human); compound 10.0 µM): 111%

SMILES: C[C@@H](Nc1nc2c(C#CC3CC3)c[nH]c(=O)c2c2cc(-c3cn[nH]c3)ccc12)C(C)(C)C
- residual activity (MUSK (human); compound 1.0 µM): 96%
- residual activity (CDK3 CCNE1 (human); compound 1.0 µM): 106%
- residual activity (PTK2B (human); compound 1.0 µM): 59%
- residual activity (CSNK1G1 (human); compound 1.0 µM): 97%
- residual activity (BTK (human); compound 1.0 µM): 79%
- residual activity (AXL (human); compound 1.0 µM): 18%
- residual activity (AKT3 (human); compound 1.0 µM): 102%
- residual activity (CSNK2A2 (human); compound 1.0 µM): 112%
- residual activity (PRKD1 (human); compound 1.0 µM): 86%
- residual activity (GRK6 (human); compound 1.0 µM): 101%
- residual activity (CSK (human); compound 1.0 µM): 75%
- residual activity (STK11 (human); compound 1.0 µM): 96%
- residual activity (ACVR1B (human); compound 1.0 µM): 93%
- residual activity (LYN (human); compound 1.0 µM): 72%
- residual activity (PDGFRB (human); compound 1.0 µM): 102%
- residual activity (NTRK1 (human); compound 1.0 µM): 10%
- residual activity (IRAK4 (human); compound 1.0 µM): 122%
- residual activity ([1]; compound 1.0 µM): 12%
- residual activity (AURKA (human); compound 1.0 µM): 7%
- residual activity (PKN2 (human); compound 1.0 µM): 10%
- residual activity (SRPK3 (human); compound 1.0 µM): 115%
- residual activity (SIK1 (human); compound 1.0 µM): 23%
- residual activity (RPS6KA6 KD1 KD2 (human); compound 1.0 µM): 12%
- residual activity (TAOK3 (human); compound 1.0 µM): 104%
- residual activity (NUAK1 (human); compound 1.0 µM): 11%
- residual activity (FLT1 (human); compound 1.0 µM): 28%
- residual activity (NTRK2 (human); compound 1.0 µM): 59%
- residual activity (SRPK2 (human); compound 1.0 µM): 107%
- residual activity (PRKACA (human); compound 1.0 µM): 106%
- residual activity (PRKCB1 (human); compound 1.0 µM): 94%
- residual activity ([2]; compound 1.0 µM): 76%
- residual activity (PRKD2 (human); compound 1.0 µM): 96%
- residual activity (YES1 (human); compound 1.0 µM): 63%
- residual activity (ABL1 (human); compound 1.0 µM): 71%
- residual activity (ROS1 (human); compound 1.0 µM): 98%
- residual activity (EPHA3 (human); compound 1.0 µM): 111%
- residual activity (NEK3 (human); compound 1.0 µM): 104%
- residual activity (CAMK2D (human); compound 1.0 µM): 25%
- residual activity (PAK2 (human); compound 1.0 µM): 99%
- residual activity ([3]; compound 1.0 µM): 9%
- residual activity (PASK (human); compound 1.0 µM): 109%
